Experiments:
[1] = tested on: scopolamine induced dementia in rats; test: Y-maze test, scopolamine induced dementia in rats (Study 2); assay type: in vivo, Charles Foster male albino rats; conditions: Donepezil 5 mg/kg i.p.; shilajit effect at 100 mg/kg
Description: 2.2. Animal subjects. Inbred Charles Foster male albino rats (130-180 g) were obtained from the Central Animal House, Institute of Medical Sciences (IMS), Banaras Hindu University (BHU), Varanasi, Uttar Pradesh, India. These were certified to be pathogen free and were randomly distributed into different experimental groups. The rats were kept in the departmental animal house at an ambient temperature of 25±1° C. and 45-55% RH, with a 12-h light/dark cycle (lights on 7:00-19:00 h). The animals had free access to standard pellet chow and tap water ad libitum. Experiments were conducted between 9:00 and 14:00 h. The behavioral testing was done during the light phase. Animals were housed in groups and acclimatized for at least one week before using them for experiments. Animals were transported in cage covered by dark cloth to the experimental room. The experimental procedures were in compliance with National Institutes of Health Guide for Care and Use of Laboratory Animals.
The rats were pretreated orally for seven days through an orogastric tube with experimental drugs (10, 25 and 50 mg/kg once daily) suspended in 0.3% carboxymethyl cellulose (CMC). The treatment was continued until the end of the experiment procedures (Singh, G. K., Garabadu, D., Muruganadam, A. V., Joshi, V. K., Krishnamurthy, S., “Antidepressant activity of Asparagus racemosus in animal models of depression,” Pharmacol. Biochem. Behav. (2009) 91(3):283-90). Scopolamine was dissolved in water for injection and administered on day 7 after one hour of drug treatment administration. Donepezil (5 mg/kg; i.p.)
was used as standard drug. On day 8 the behavioral experiment was performed. The animals were sacrificed and hippocampus was micro-dissected using the coordinates of the rat brain atlas. All control group animals were treated with the 0.3 ml of vehicle (0.3% CMC suspension) equal to the volume of experimental drugs (Ohj a, R., et al., “Asparagus recemosus enhances memory and protects against amnesia in rodent models,” Brain Cogn. (2010) October; 74(1): 1-9).
Spatial recognition memory, general exploratory behavior, and anxiety-like behavior were assessed by the Y-maze test. Y-maze consists of three similar arms of dimension 50 cm long, 16 cm wide and 32 cm high. In the first trial, the novel arm was blocked and the animal was allowed to move for 15 min in other two arms. In the second trial, the novel arm was opened and the animal was allowed to move for 5 min in all three arms after 4 h of the first trial. The total number of entries in all arms (for 5 min of trial-1 and trial-2) is indicative of general exploration attitude (curiosity). The % entries in known and novel arms for the 5 min period of trial 2 were considered as a measure of spatial recognition memory. Coping strategy to the novel environment was estimated by the percentage of the ratio of time spent in the novel arm to time spent in all arms and in the center of the apparatus during trial 2. The decrease in the coping behavior to the novel environment was considered as an increase in anxiety-like behavior (Krishnamurthy, S., et al., “Risperidone ameliorates post-traumatic stress disorder-like symptoms in modified stress re-stress model,” Neuropharmacology (2013) 75:62-77).

[2] = tested on: acetylcholine (ACh) level in HIP tissue; test: Acetylcholine level in hippocampal tissue, Amplex Red kit (Example 9D); assay type: in vivo, Male Wistar rats; conditions: p.o. 7 days: B 50, A 50, Donepezil 3, B:A 10:50 and 50:50, Shilajit 50 mg/kg
Description: Drug solution was freshly prepared in 0.3% CMC and administered by oral gavage once a day, for a period of 7 days. Briefly, the whole experiment was conducted for 8 days. Scopolamine (1 mg/kg), a muscarinic receptor antagonist, was dissolved in normal saline (0.9% NaCl) and administered intraperitoneally 1 h after drugs administration on seventh day.
Sample preparation: The animals were killed by decapitation and the brain tissues were dissected out in ice-cold conditions and stored at −80° C. until use. Tissue was homogenized in 1.0 ml of 0.1M perchloric acid with a Potter-Elvehjem homogenizer. The homogenate was kept in the polypropylene tubes for 15 min after which 40 μl of 4M potassium acetate was added to adjust the pH to 4.0 followed by centrifugation for 15 min at 4000×g. Supernatant was used to estimate acetylcholine and AChE activities.
Samples were prepared as in Example 9C. The amount of acetylcholine in brain tissues was measured using Amplex red assay kit (Molecular Probes, Inc., USA). An acetylcholine standard curve was used in each experiment. Briefly, the reactions are initiated by adding 0.1 ml of control (10 μM H2O2) and tissue homogenates were taken in two separate polypropylene tubes and then 0.1 ml working solution of 400 μM Amplex Red reagent containing 2 U/mL HRP, 0.2 U/mL choline oxidase and 1 U/mL acetylcholinesterase were added to each tube. After incubation for 45 min, the fluorescence was recorded with the help of spectrofluorometer at 530 nm excitation and 590 nm emission wavelengths. The protein content was determined using standard protocol (Lowry, et al., 1951).
Statistical analyses: The results were expressed as means±Standard Error mean (SEM). The intergroup variation was measured by one-way ANOVA followed by Student-Newman-Keuls test. Two-way followed by Bonferroni test was employed to discover the intergroup variation in Y maze test considering groups and arms as two independent variables. Statistical analysis was done by using Graph Pad prism version 5 (San Diego, Calif.). A level of p<0.05 was accepted as statistically significant.

Which “Scopolamine-induced altered exploratory behavior (total arm entries)” value [1] does the source give for `COc1cc2c(cc1OC)C(=O)C(CC1CCN(Cc3ccccc3)CC1)C2` (centres unmarked) [Donepezil, reference compound] here?
Its value is “reversed this activity”.

And the “Scopolamine-induced decrease in ACh level in HIP tissue” value [2]?
The value was “the same as 3-OH-DBP (B) (50 mg/kg) group”.
